# Measured values reported in patent publication US8815007B2, “Alkoxylated polyamines and polyetheramine polyol compositions for foam control” (priority 2007, dated 2014).
# Assay: Equilibrium surface tension, double-probe bubble tensiometer
# Type: physicochemical
# Settings: one bubble per second
# Protocol: The antifoaming properties of the above compositions were evaluated using the blender foam test as described below. Surface tensions were determined using a […] OC-6000 double-probe bubble tensiometer. Equilibrium surface tensions were determined on 0.1% active solutions in deionized water at 25° C. by using a bubble rate of one bubble per second. […] Surface tension measurements were carried out using a Sensation QC-6000 double-probe bubble tensiometer from the Sensation Division of Chem-Dyne Research Corp. of Mesa, Ariz.
substance,measurement,setting,value
diethylenetriamine/2 mol 1-epoxyoctane adduct [Example 2],Surface Tension,"Table 2, 0.1% active solutions in deionized water at 25° C.",36.2 mN/m
same,Surface Tension,"Table 3, 0.1% active solutions in deionized water at 25 deg C.",36.2 mN/m
